According to US20230150970A1, “AMINOPYRIMIDINE DERIVATIVES AND THEIR USE AS ARYL HYDROCARBON RECEPTOR MODULATORS” (DONG-A ST CO., LTD., priority 2020, published 2023):

target: T1, AhR (Homo sapiens, UniProt P35869); experiment: In Vitro Assay 1: XRE-luciferase reporter assay, antagonism in human cell line (HepG2); settings: Assay 1: AhR-Luc Human Antagonism (IC50, nM), values marked *: kynurenine 50 μM, 6 hours
T1 sequence (P35869 11-848): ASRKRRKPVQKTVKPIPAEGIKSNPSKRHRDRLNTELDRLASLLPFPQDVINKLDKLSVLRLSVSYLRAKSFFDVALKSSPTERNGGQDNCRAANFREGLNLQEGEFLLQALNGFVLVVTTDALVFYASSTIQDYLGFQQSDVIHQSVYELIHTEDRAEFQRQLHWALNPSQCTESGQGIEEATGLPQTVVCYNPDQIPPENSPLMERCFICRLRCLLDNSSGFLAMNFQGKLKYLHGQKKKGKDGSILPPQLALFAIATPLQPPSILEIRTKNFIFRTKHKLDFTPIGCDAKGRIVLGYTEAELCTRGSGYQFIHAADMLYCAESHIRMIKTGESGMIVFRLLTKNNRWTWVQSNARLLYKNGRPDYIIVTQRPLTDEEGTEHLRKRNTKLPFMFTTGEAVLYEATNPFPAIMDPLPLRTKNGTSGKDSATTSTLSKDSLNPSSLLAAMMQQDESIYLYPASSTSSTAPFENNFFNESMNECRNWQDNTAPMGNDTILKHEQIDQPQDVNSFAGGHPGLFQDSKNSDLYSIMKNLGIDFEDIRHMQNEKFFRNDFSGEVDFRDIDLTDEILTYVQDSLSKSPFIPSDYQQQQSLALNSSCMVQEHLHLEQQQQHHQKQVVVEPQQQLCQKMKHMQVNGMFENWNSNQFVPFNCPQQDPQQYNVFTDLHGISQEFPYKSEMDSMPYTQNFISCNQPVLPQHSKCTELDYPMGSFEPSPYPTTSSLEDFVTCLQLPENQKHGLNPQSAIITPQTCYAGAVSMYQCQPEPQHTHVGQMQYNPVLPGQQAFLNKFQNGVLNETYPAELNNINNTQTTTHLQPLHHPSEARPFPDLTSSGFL

| Compound | IC50 [nM] |
| --- | --- |
| OCCC1CCCCN1c1cc(-c2ccc(Cl)cc2)nc(-c2cccnc2)n1 (centres unmarked) [Example 37, 2-(1-(6-(4-chlorophenyl)-2-(pyridin-3-yl)pyrimidin-4-yl)piperidin-2-yl)ethan-1-ol] | > 1000 |
| CC1CCCCN1c1cc(-c2ccc(Cl)cc2)nc(-c2cccnc2)n1 (centres unmarked) [Example 47, 4-(4-chlorophenyl)-6-(2-methylpiperidin-1-yl)-2-(pyridin-3-yl)pyrimidine] | > 1000 |
| CC1CCCN(c2cc(-c3ccc(Cl)cc3)nc(-c3cccnc3)n2)C1 (centres unmarked) [Example 48, 4-(4-chlorophenyl)-6-(3-methylpiperidin-1-yl)-2-(pyridin-3-yl)pyrimidine] | > 1000 |
| CC1CCCC(C)N1c1cc(-c2ccc(Cl)cc2)nc(-c2cccnc2)n1 (centres unmarked) [Example 49, 4-(4-chlorophenyl)-6-(2,6-dimethylpiperidin-1-yl)-2-(pyridin-3-yl)pyrimidine] | > 1000 |
| CC1CC(C)CN(c2cc(-c3ccc(Cl)cc3)nc(-c3cccnc3)n2)C1 (centres unmarked) [Example 50, 4-(4-chlorophenyl)-6-(3,5-dimethylpiperidin-1-yl)-2-(pyridin-3-yl)pyrimidine] | > 1000 |
| CCC1CCCN(c2cc(-c3ccc(Cl)cc3)nc(-c3cccnc3)n2)C1 (centres unmarked) [Example 53, 4-(4-chlorophenyl)-6-(3-ethylpiperidin-1-yl)-2-(pyridin-3-yl)pyrimidine] | > 1000 |
| Clc1ccc(-c2cc(NC3CCNCC3)nc(-c3cccnc3)n2)cc1 [Example 54, 6-(4-chlorophenyl)-N-(piperidin-4-yl)-2-(pyridin-3-yl)pyrimidin-4-amine] | > 1000 |
| Clc1ccc(-c2cc(NCC3CCCNC3)nc(-c3cccnc3)n2)cc1 (centres unmarked) [Example 55, 6-(4-chlorophenyl)-N-(piperidin-3-ylmethyl)-2-(pyridin-3-yl)pyrimidin-4-amine] | > 1000 |
| CN1CCC(Nc2cc(-c3ccc(Cl)cc3)nc(-c3cccnc3)n2)CC1 [Example 57, 6-(4-chlorophenyl)-N-(1-methylpiperidin-4-yl)-2-(pyridin-3-yl)pyrimidin-4-amine] | > 1000 |
| Clc1ccc(-c2cc(NCCC3CCNCC3)nc(-c3cccnc3)n2)cc1 [Example 58, 6-(4-chlorophenyl)-N-(2-(piperidin-4-yl)ethyl)-2-(pyridin-3-yl)pyrimidin-4-amine] | > 1000 |
| NCC1CCCCN1c1cc(-c2ccc(Cl)cc2)nc(-c2cccnc2)n1 (centres unmarked) [Example 59, (1-(6-(4-chlorophenyl)-2-(pyridin-3-yl)pyrimidin-4-yl)piperidin-2-yl)methanamine] | > 1000 |
| N[C@@H]1CCCN(c2cc(-c3ccc(Cl)cc3)nc(-c3cccnc3)n2)C1 [Example 60, (R)-1-(6-(4-chlorophenyl)-2-(pyridin-3-yl)pyrimidin-4-yl)piperidin-3-amine] | > 1000 |
| N[C@H]1CCCN(c2cc(-c3ccc(Cl)cc3)nc(-c3cccnc3)n2)C1 [Example 61, (S)-1-(6-(4-chlorophenyl)-2-(pyridin-3-yl)pyrimidin-4-yl)piperidin-3-amine] | > 1000 |
| NCC1CCCN(c2cc(-c3ccc(Cl)cc3)nc(-c3cccnc3)n2)C1 (centres unmarked) [Example 62, (1-(6-(4-chlorophenyl)-2-(pyridin-3-yl)pyrimidin-4-yl)piperidin-3-yl)methanamine] | > 1000 |
| NC[C@@H]1CCCN(c2cc(-c3ccc(Cl)cc3)nc(-c3cccnc3)n2)C1 [Example 63, (S)-(1-(6-(4-chlorophenyl)-2-(pyridin-3-yl)pyrimidin-4-yl)piperidin-3-yl)methanamine] | > 1000 |
| O[C@@H]1CCC[C@@H]1Nc1cc(-c2ccc(Cl)cc2)nc(-c2cccnc2)n1 [Example 66, (1R,2S)-2-((6-(4-chlorophenyl)-2-(pyridin-3-yl)pyrimidin-4-yl)amino)cyclopentan-1-ol] | > 1000 |
| O[C@H]1CCC[C@@H]1Nc1cc(-c2ccc(Cl)cc2)nc(-c2cccnc2)n1 [Example 67, (1S,2S)-2-((6-(4-chlorophenyl)-2-(pyridin-3-yl)pyrimidin-4-yl)amino)cyclopentan-1-ol] | 100 to 1000 |
| O[C@@H]1CCCC[C@H]1Nc1cc(-c2ccc(Cl)cc2)nc(-c2cccnc2)n1 [Example 69, (1R,2R)-2-((6-(4-chlorophenyl)-2-(pyridin-3-yl)pyrimidin-4-yl)amino)cyclohexan-1-ol] | 100 to 1000 |
| Clc1ccc(-c2cc(NCC3CNCCO3)nc(-c3cccnc3)n2)cc1 (centres unmarked) [Example 72, 6-(4-chlorophenyl)-N-(morpholin-2-ylmethyl)-2-(pyridin-3-yl)pyrimidin-4-amine] | > 1000 |
| Clc1ccc(-c2cc(N3CCC(N4CCOCC4)C3)nc(-c3cccnc3)n2)cc1 (centres unmarked) [Example 73, 4-(1-(6-(4-chlorophenyl)-2-(pyridin-3-yl)pyrimidin-4-yl)pyrrolidin-3-yl)morpholine] | > 1000 |
| Clc1ccc(-c2cc(N3CCSCC3)nc(-c3cccnc3)n2)cc1 [Example 74, 4-(6-(4-chlorophenyl)-2-(pyridin-3-yl)pyrimidin-4-yl)thiomorpholine] | 100 to 1000 |
| Clc1ccc(-c2cc(NCCCN3CCOCC3)nc(-c3cccnc3)n2)cc1 [Example 75, 6-(4-chlorophenyl)-N-(3-morpholinopropyl)-2-(pyridin-3-yl)pyrimidin-4-amine] | > 1000 |
| C[C@@H]1CNCCN1c1cc(-c2ccc(Cl)cc2)nc(-c2cccnc2)n1 [Example 76, (R)-4-(4-chlorophenyl)-6-(2-methylpiperazin-1-yl)-2-(pyridin-3-yl)pyrimidine] | > 1000 |
| C[C@@H]1CN(C(=O)c2ccccc2)CCN1c1cc(-c2ccc(Cl)cc2)nc(-c2cccnc2)n1 [Example 77, (R)-(4-(6-(4-chlorophenyl)-2-(pyridin-3-yl)pyrimidin-4-yl)-3-methylpiperazin-1-yl)(phenyl)methanone] | > 1000 |

Now from value to compound:

| IC50 [nM] | Compound |
| --- | --- |
| 10 to 100 | OCC1CCCCN1c1cc(-c2ccc(Cl)cc2)nc(-c2cccnc2)n1 (centres unmarked) [Example 36, (1-(6-(4-chlorophenyl)-2-(pyridin-3-yl)pyrimidin-4-yl)piperidin-2-yl)methanol] |
| < 10 | O[C@@H]1CCCN(c2cc(-c3ccc(Cl)cc3)nc(-c3cccnc3)n2)C1 [Example 38, (R)-1-(6-(4-chlorophenyl)-2-(pyridin-3-yl)pyrimidin-4-yl)piperidin-3-ol] |
| 10 to 100 | OC1CCCN(c2cc(-c3ccc(Cl)cc3)nc(-c3cccnc3)n2)C1 (centres unmarked) [Example 39, 1-(6-(4-chlorophenyl)-2-(pyridin-3-yl)pyrimidin-4-yl)piperidin-3-ol] |
| 10 to 100 | OCC1CCCN(c2cc(-c3ccc(Cl)cc3)nc(-c3cccnc3)n2)C1 (centres unmarked) [Example 40, (1-(6-(4-chlorophenyl)-2-(pyridin-3-yl)pyrimidin-4-yl)piperidin-3-yl)methanol] |
| < 10 | OC1CCN(c2cc(-c3ccc(Cl)cc3)nc(-c3cccnc3)n2)CC1 [Example 41, 1-(6-(4-chlorophenyl)-2-(pyridin-3-yl)pyrimidin-4-yl)piperidin-4-ol] |
| < 10 | OCCCC1CCN(c2cc(-c3ccc(Cl)cc3)nc(-c3cccnc3)n2)CC1 [Example 44, 3-(1-(6-(4-chlorophenyl)-2-(pyridin-3-yl)pyrimidin-4-yl)piperidin-4-yl)propan-1-ol] |
| 10 to 100 | COC1CCN(c2cc(-c3ccc(Cl)cc3)nc(-c3cccnc3)n2)CC1 [Example 45, 4-(4-chlorophenyl)-6-(4-methoxypiperidin-1-yl)-2-(pyridin-3-yl)pyrimidine] |
| 100 to 1000 | Clc1ccc(-c2cc(N3CCCCC3)nc(-c3cccnc3)n2)cc1 [Example 46, 4-(4-chlorophenyl)-6-(piperidin-1-yl)-2-(pyridin-3-yl)pyrimidine] |
| 100 to 1000 | FC1(F)CCCN(c2cc(-c3ccc(Cl)cc3)nc(-c3cccnc3)n2)C1 [Example 51, 4-(4-chlorophenyl)-6-(3,3-difluoropiperidin-1-yl)-2-(pyridin-3-yl)pyrimidine] |
| 100 to 1000 | FC(F)(F)C1CCCN(c2cc(-c3ccc(Cl)cc3)nc(-c3cccnc3)n2)C1 (centres unmarked) [Example 52, 4-(4-chlorophenyl)-2-(pyridin-3-yl)-6-(3-(trifluoromethyl)piperidin-1-yl)pyrimidine] |
| 100 to 1000 | Clc1ccc(-c2cc(NCC3CCNCC3)nc(-c3cccnc3)n2)cc1 [Example 56, 6-(4-chlorophenyl)-N-(piperidin-4-ylmethyl)-2-(pyridin-3-yl)pyrimidin-4-amine] |
| 100 to 1000 | NC1CCN(c2cc(-c3ccc(Cl)cc3)nc(-c3cccnc3)n2)CC1 [Example 64, 1-(6-(4-chlorophenyl)-2-(pyridin-3-yl)pyrimidin-4-yl)piperidin-4-amine] |
| 100 to 1000 | NCC1CCN(c2cc(-c3ccc(Cl)cc3)nc(-c3cccnc3)n2)CC1 [Example 65, (1-(6-(4-chlorophenyl)-2-(pyridin-3-yl)pyrimidin-4-yl)piperidin-4-yl)methanamine] |
| 10 to 100 | Clc1ccc(-c2cc(N3CCOCC3)nc(-c3cccnc3)n2)cc1 [Example 71, 4-(6-(4-chlorophenyl)-2-(pyridin-3-yl)pyrimidin-4-yl)morpholine] |
